The text below walks through data of article PMC11212260, “Next-generation neuropeptide Y receptor small-molecule agonists inhibit mosquito-biting behavior” (Parasites & Vectors, 2024).

“And” between values parts separate entries of the source, which are not always exact repeats. Equal entries are not always repeated. Where two headings read alike, the source gives them in different places.

In one test the target is Ae. aegypti NPYLR7 (Aedes aegypti, UniProt U5N1H5). Description: In vitro calcium (GCaMP6s) FLIPR assay in HEK293T cells transfected with NPYLR7. It is filed as cell-based. Particulars: for activation at 100 µM: single replicate of the dose-response curve; for RFU: assay date 1/11/20 plate 1, duplicate wells, listed as TDI-012615-NX-1. The protocol:
The in vitro screening assay was adapted from, and carried out at HD Biosciences (HDB, Shanghai) as follows: HEK293T (Thermo Fisher Scientific) cells were grown in Dulbecco’s modified Eagle medium (DMEM) (high glucose, with glutamine), 10% fetal bovine serum, 1% penicillin–streptomycin (Pen/Strep), seeded in a 75 cm^2 flask, and incubated at 37 °C and 5% CO2. Cells were transiently transfected with 1 μg of each plasmid expressing GCaMP6s (Addgene […]) (Chen et al., 2013), mouse Gqα15 (Addgene #40753) (Offermanns and Simon, 1995) and Ae. aegypti NPYLR7 (Addgene #52392) (Duvall et al. 2019) using Lipofectamine 2000 (Invitrogen) in 4 ml of Opti-MEM (Invitrogen). This mixture was added to a plate after 20 min and incubated for 6–8 h. Cells were then trypsinized, resuspended in phenol-free media, and plated in a 384-well plate (Greiner Bio-One) at a density of 20,000 cells per 40 μl, and incubated overnight (37 °C, 5% CO2). Cells were imaged directly in phenol-free media. Plates were loaded into a Molecular Devices fluorescence imaging plate reader (FLIPR) with an excitation wavelength of 470–495 nm and an emitted wavelength of 515–575 nm. Plates were imaged every second for 5 min. After 30 s of baseline fluorescence recording, 10 μl of the test compound in reading buffer [Hank’s Balanced Salt Solution (Gibco) + 20 mM HEPES (Sigma-Aldrich)] was added. Concentrations tested ranged from 0 to 100 μM. Data were collected in raw fluorescence units (RFU).
Each test plate included replicates of 10 μM FMRFa3 (H‐Ala‐Gly‐Gln‐Gly‐Phe‐Met‐Arg‐Phe‐NH2), an Ae. aegypti neuropeptide agonist of NPYLR7 used to calculate the hundred percent effect (HPE). The zero percent effect (ZPE) control was calculated as a response to buffer alone. The Z′ factor was calculated for each plate by Z^′=1-3σHPE+3σZPE/|μHPE-μZPE| . Plates with Z′ < 0.5 were excluded from analysis. Raw fluorescence units (RFU) were converted to percent effect relative to the average of the ZPE and HPE. Percent effect = (sample luminescence − average ZPE)/(average HPE − average ZPE)×100. […] Each replicate was plotted as percent effect versus log[concentration], and replicates with maximal responses between 20 and 250% were used for EC50 calculations. Relative EC50 was calculated using an [Agonist] versus response–variable slope four-parameter model where Y=Bottom+(X^Hillslope)∗(Top-Bottom)/(X^HillSlope+EC50^HillSlope) . For compounds with multiple replicates, the relative EC50 of each replicate was averaged.

Test [1] relates to Aedes aegypti (Orlando strain) females. Description: Host-seeking screening assay (miniport olfactometer). It is filed as in vivo. To be noted: fed 1 μM in saline, tested 48 h post-meal; for Attraction (relative to saline): per-compound value of Fig. 3C. The protocol:
Groups of 60–150 females were placed in bucket cages with a diameter of 21.6 cm and height of 16.5 cm (VWR) and fasted with access to water for 24 h prior to feeding. Meals were delivered to females via Glytube membrane feeders as described previously. Meals consisted of 1.5 ml sheep blood (HemoStat Laboratories), saline (400 mM NaHCO3 + dih2O), or saline and test compound. Lyophilized compounds were stored at room temperature until use. High-concentration stocks (30 mM in 100% dimethyl sulfoxide [DMSO]) (Sigma-Aldrich) were stored at −20 °C and diluted in saline immediately prior to feeding. Once prepared, meals and glycerol heating elements were warmed in a 42 °C water bath for 15 min to provide warmth to attract mosquitos to feed. ATP (1 mM final concentration) and test compounds (1 μM final concentration) were added prior to placing the meal on top of the mesh on the cage containing female mosquitos. Females were allowed 15–20 min to feed to repletion. Abdominal engorgement was scored by eye and confirmed by weighing females to ensure full feeding (Data S1). […] Females were returned to their original cage with a diH2O wick for 48 h prior to behavioral testing. The lethality of each compound was measured by counting the number of dead females in each cage 24 h post-meal.
Miniport olfactometers were fabricated in-house as described previously. Information regarding design, construction, and use can be found at https://github.com/VosshallLab/Miniport-Construction. Miniport canisters consisted of a 6″ × 3″ × 3″ acrylic tube with a mesh screen to allow for air flow. Groups of 10–20 females were loaded into canisters 24 h post-meal. Females were left in canisters overnight to acclimate with two cotton balls soaked in diH20 to prevent desiccation. Behavior trials began 48 h post-meal. Canisters were randomly assigned to attraction traps 1–4 and given 5 min to acclimate. The stimulus end of the trap was connected to a flowmeter that supplied 5% CO2 at a rate of 30 ml/min. Thirty seconds of CO2 flow was supplied to activate females prior to opening the sliding door. Once opened, the sliding door gave females access to the attraction trap baited with a human-scented nylon stocking previously worn by the same experimenter for 8–10 h to collect body odor and stored in a plastic bag at −20 °C until use. After 5 min, the sliding door was closed and attraction was scored as mosquitoes in the attraction trap/total number of mosquitoes. For each experiment data were normalized to the matched average saline attraction from the same experiment (% attracted/average saline attraction). Any dead mosquitoes were excluded from the analysis. Non-fed females and blood-fed females served as environmental control groups while the saline-fed females served as the vehicle control each day. If non-fed or saline-fed females were less than 50% attracted or if blood-fed females were more than 20% attracted behavioral trials were halted and all data from that experimental day were discarded.

[2] abbreviates: EC50 of the individual assay date/plate (assay date), read-out: EC50.
The mark [3] stands for this setting: Figure 1E Summary, third list (n = 39), read-out: Reported Metric (Summary list).
Where [4] appears, read: HEK-293T, single replicate, normalised response.
The mark [5] stands for this setting: HEK-293T, 100 uM, normalised response.
Setting [6] is: relative EC50, percent effect relative to 10 μM FMRFa3, read-out: EC50.
Where [7] appears, read: sheet Figure 3C, unit inferred, read-out: EC50.
Where [8] appears, read: summary EC50 per compound (mean over assay dates), the unit is taken from the neighbouring EC50 (uM) column, read-out: Reported Metric.
Setting [9] is: Figure 1E Summary, second list (n = 48), read-out: Reported Metric (Summary list).

Chain of Ae. aegypti NPYLR7 (U5N1H5 entry or part of it): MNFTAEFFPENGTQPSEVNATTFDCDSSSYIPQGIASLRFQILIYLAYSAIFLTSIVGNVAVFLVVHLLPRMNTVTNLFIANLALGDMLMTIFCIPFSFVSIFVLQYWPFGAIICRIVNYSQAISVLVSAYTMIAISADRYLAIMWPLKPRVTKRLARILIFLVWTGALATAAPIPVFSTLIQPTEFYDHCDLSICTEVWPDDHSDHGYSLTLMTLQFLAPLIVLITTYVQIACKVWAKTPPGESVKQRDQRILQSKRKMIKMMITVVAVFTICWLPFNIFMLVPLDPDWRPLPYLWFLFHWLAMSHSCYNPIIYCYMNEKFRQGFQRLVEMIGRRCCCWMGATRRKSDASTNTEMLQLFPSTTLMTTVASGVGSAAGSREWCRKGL

In the case of `Cc1nc(NC(=N)N)nc2cc(OCC3CC3)ccc12` [TDI-014171], the EC50 on Ae. aegypti NPYLR7 (setting [2]), at Ae. aegypti NPYLR7 (setting [3]), on Ae. aegypti NPYLR7 (setting [6]), on Ae. aegypti NPYLR7 (setting [7]) and on Ae. aegypti NPYLR7 (setting [8]) was 0.912 µM in each case. Besides, on Ae. aegypti NPYLR7 (HEK-293T, 1.2346 uM, single replicate, normalised response), the activation at 1.2346 µM came out at 32.9%. Further, the activation at 3.7037 µM at Ae. aegypti NPYLR7 (HEK-293T, 3.7037 uM, single replicate, normalised response) came out at 50.2%. Besides, the activation at 11.1111 µM at Ae. aegypti NPYLR7 (setting [4]) turned out to be 63.8%. Further, the activation at 100 µM at Ae. aegypti NPYLR7 (setting [5]) came out at 66.3%. Besides, in test [1], the “Attraction (relative to saline)” value was determined as 0.79.
As to `Cc1nc(NC(=N)N)nc2cc(OC(F)F)ccc12` [TDI-012615], the RFU on Ae. aegypti NPYLR7 (0.00169350878084303uM) was 74 RFU and 66 RFU; on Ae. aegypti NPYLR7 (0.00508052634252909uM), 74 RFU and 63 RFU; on Ae. aegypti NPYLR7 (0.0152415790275873uM), 71 RFU and 60 RFU; on Ae. aegypti NPYLR7 (0.0457247370827618uM) it was 57 RFU and 73 RFU; on Ae. aegypti NPYLR7 (0.137174211248285uM), 57 RFU and 91 RFU; on Ae. aegypti NPYLR7 (0.411522633744856uM), 153 RFU and 157 RFU. Moreover, the RFU on Ae. aegypti NPYLR7 (1.23456790123457uM) is 207 RFU and 271 RFU; on Ae. aegypti NPYLR7 (3.7037037037037uM) it was 247 RFU and 267 RFU; at Ae. aegypti NPYLR7 (11.1111111111111 uM), 339 RFU and 333 RFU; at Ae. aegypti NPYLR7 (33.333333 uM) it was 353 RFU and 317 RFU; at Ae. aegypti NPYLR7 (100 uM), 434 RFU and 405 RFU. Further, the EC50 on Ae. aegypti NPYLR7 (setting [3]) was 1.62 µM; on Ae. aegypti NPYLR7 (Figure 1E, EC50 of the single assay date/plate, read-out: EC50), 1.31 µM and 1.93 µM; at Ae. aegypti NPYLR7 (Figure 1E, metric reported per compound, repeated on every replicate line, read-out: Reported Metric (EC50)), 1.62 µM; on Ae. aegypti NPYLR7 (setting [6]), 1.62 µM. Moreover, in test [1], the “Attraction (relative to saline)” value is given as 0.94.
On to `COc1cc2c(C)nc(NC(=N)N)nc2cc1OCc1ccccc1` [TDI-012943], for which the EC50 at Ae. aegypti NPYLR7 (setting [3]) was 0.0545 µM; on Ae. aegypti NPYLR7 (Figure 1E summary value per compound, repeated on each replicate line, read-out: Reported Metric (EC50 summarised over assay dates)), 0.0545 µM; on Ae. aegypti NPYLR7 (fit per assay date/plate (c2), repeated on the replicate lines of one date, read-out: EC50), 0.0446 µM and 0.119 µM; on Ae. aegypti NPYLR7 (setting [6]), 0.0545 µM. The “Attraction (relative to saline)” value in test [1] turned out to be 1.035.
`Cc1nc(NC(=N)N)nc2cc(OCc3ccc(OC(F)(F)F)cc3)ccc12` [TDI-014172]: the EC50 at Ae. aegypti NPYLR7 (setting [2]), at Ae. aegypti NPYLR7 (setting [9]), at Ae. aegypti NPYLR7 (setting [6]), at Ae. aegypti NPYLR7 (setting [7]) and on Ae. aegypti NPYLR7 (setting [8]) was 19.7 µM in each case. On Ae. aegypti NPYLR7 (setting [4]), the activation at 11.1111 µM was 57%. Moreover, the activation at 33.3333 µM on Ae. aegypti NPYLR7 (HEK-293T, 33.3333 uM, single replicate, normalised response) is 89.6%. Further, in test [1] (individual replicates, listed as TDI-04172), the “Host-seeking relative to saline (test compound % host-seeking/average matched saline % host-seeking)” value is 1 and 1.1. The “Attraction (relative to saline)” value in test [1] turned out to be 0.975.
Take `Cc1nc(NC(=N)N)nc2cc(OCC3CCCCO3)ccc12` (stereo not drawn) [TDI-014192]: the EC50 on Ae. aegypti NPYLR7 (setting [2]), at Ae. aegypti NPYLR7 (setting [9]), at Ae. aegypti NPYLR7 (setting [6]), on Ae. aegypti NPYLR7 (setting [7]) and at Ae. aegypti NPYLR7 (setting [8]) was 5.76 µM throughout. On Ae. aegypti NPYLR7 (setting [4]), the activation at 11.1111 µM was 55.1%. In addition, the activation at 100 µM on Ae. aegypti NPYLR7 (setting [5]) was 67.4%. Further, the “Attraction (relative to saline)” value in test [1] is given as 1.035.
